Measurements as given in patent US20230270713A1, “Administration of Resiniferatoxin For Treatment of Bladder Pain or Bladder Cancer” (Sorrento Therapeutics, Inc., priority 2020, published 2023).

Test system: cats with FIC (Feline Idiopathic Cystitis)
Assay: Cystitis Events Survey in cats with Feline Idiopathic Cystitis
Format: in vivo, cat
Conditions: for Cystitis Improvement ≥2 Point, cats n/N / Cystitis Improvement ≥3 Point, cats n/N / Cystitis Improvement ≥2 Point, percent of cats / Cystitis Improvement ≥3 Point, percent of cats: Day 28
From the text: The Cystitis Events Survey consists a 5-point scale, ranging from 0=normal cat to 5=very severe sign of cystitis. Clinical signs of cystitis included in this survey are: increased frequency of urination; straining while urinating; crying out/vocalizing while urinating; presence of blood in urine; urination outside of litter box; and increased grooming around perineum.
The use of the Cystitis Events Survey was exploratory, and no strict definition of success was applied to the results. However, and based on published literature, the results were described as follows: (1) percentage of cats per cohort with an average improvement of 2 or more points and no increase in any individual score on Day 28; and (2) percentage of cats per cohort with an average improvement of 3 or more points and no increase in any individual score on Day 28.
[…] Intravesical instillation: After the cat has reached an adequate anesthesia level, the perineal area was prepared using a standard aseptic technique. After preparation, a urinary catheter (type and size decided on a case by case basis) was placed using aseptic technique. Then, the urinary bladder was emptied and flushed with 20 ml of sterile saline. Once the flush solution was removed, the RTX solution was infused through the urinary catheter over 2 minutes. Once the total volume of the solution is infused, the solution was left in the urinary bladder for 20 min. At the end of this period the IVP (investigational veterinary product) solution was removed. Finally, the urinary catheter was removed, and the perineal area was flushed with 20 ml of saline. The total amount of solution removed from the bladder was recorded.
24 cats were treated and the cohorts and their respective IVP treatments are described in the table 9 below. The cohorts were populated and dosed sequentially. Cats enrolled in Cohorts 2, 3 and 4 were dosed at least 3 days after the previous cohort closed.

[1] = 6.25 μg (0.25 μg/mL), Day 0, n 6
[2] = 6.25 μg (0.25 μg/mL), Day 28, n 6
[3] = 12.5 μg (0.5 μg/mL), Day 0, n 6
[4] = 12.5 μg (0.5 μg/mL), Day 28, n 5
[5] = 12.5 μg (1.25 μg/mL), Day 0, n 6
[6] = 12.5 μg (1.25 μg/mL), Day 28, n 6

## C=C(C)[C@]12C[C@@H](C)[C@@]34O[C@](Cc5ccccc5)(O[C@@H]1[C@@H]3C=C(COC(=O)Cc1ccc(O)c(OC)c1)C[C@]1(O)C(=O)C(C)=C[C@@H]41)O2 [RTX, resiniferatoxin]
[1]
  cystitis events survey, Maximum: 18.0
  cystitis events survey, Mean: 13.00
  cystitis events survey, Median: 12.00
  cystitis events survey, Minimum: 10.0
[2]
  cystitis events survey, Maximum: 14.0
  cystitis events survey, Mean: 8.33
  cystitis events survey, Median: 8.00
  cystitis events survey, Minimum: 3.0
6.25 μg/25 mL (Cohort 2)
  Cystitis Improvement ≥2 Point, cats n/N: 4/6
  Cystitis Improvement ≥3 Point, cats n/N: 2/6
[3]
  cystitis events survey, Maximum: 13.0
  cystitis events survey, Mean: 11.33
  cystitis events survey, Median: 11.00
  cystitis events survey, Minimum: 10.0
[4]
  cystitis events survey, Maximum: 7.0
  cystitis events survey, Mean: 5.20
  cystitis events survey, Median: 5.00
  cystitis events survey, Minimum: 3.0
[5]
  cystitis events survey, Maximum: 16.0
  cystitis events survey, Mean: 12.5
  cystitis events survey, Median: 12.50
  cystitis events survey, Minimum: 9.0
[6]
  cystitis events survey, Maximum: 8.0
  cystitis events survey, Mean: 5.33
  cystitis events survey, Median: 6.00
  cystitis events survey, Minimum: 3.0
12.5 μg/10 mL (Cohort 4)
  Cystitis Improvement ≥2 Point, cats n/N: 6/6
  Cystitis Improvement ≥2 Point, percent of cats: (100%)
  Cystitis Improvement ≥3 Point, cats n/N: 6/6
  Cystitis Improvement ≥3 Point, percent of cats: (100%)
12.5 μg/25 mL (Cohort 3)
  Cystitis Improvement ≥2 Point, cats n/N: 5/5
  Cystitis Improvement ≥2 Point, percent of cats: (100%)
  Cystitis Improvement ≥3 Point, cats n/N: 5/5
  Cystitis Improvement ≥3 Point, percent of cats: (100%)
25 μg (1 μg/mL), Day 0, n 6
  cystitis events survey, Maximum: 22.0
  cystitis events survey, Mean: 16.67
  cystitis events survey, Median: 16.50
  cystitis events survey, Minimum: 11.0
25 μg (1 μg/mL), Day 28, n 5
  cystitis events survey, Maximum: 7.0
  cystitis events survey, Mean: 4.40
  cystitis events survey, Median: 4.00
  cystitis events survey, Minimum: 2.0
25 μg/25 mL (Cohort 1)
  Cystitis Improvement ≥2 Point, cats n/N: 4/5
  Cystitis Improvement ≥2 Point, percent of cats: (80%)
  Cystitis Improvement ≥3 Point, cats n/N: 4/5
  Cystitis Improvement ≥3 Point, percent of cats: (80%)
